Results on 32 compounds are retold here after patent US10123994B2, “Heterocyclic derivative having AMPK-activating activity” (SHIONOGI & CO., LTD., priority 2014, dated 2018).

This experiment has as its target T1, Human AMPK α2β2γ1 (Homo sapiens, UniProt O43741+P54619+P54646).
T1 construct: The full length cDNAs of human AMPK β2 (NM_005399.3) and human AMPK α2 (NM_006252.3); The full length cDNAs of human AMPK β2 (NM_005399.3); the full length cDNA of human AMPK γ1 (NM_002733.3); 6xHis (N); made in house; host or cells: Escherichia coli BL21 CodonPlus (DE3)-RIL (AMPK); BL21 Star (DE3) (CaMKK2)
Description: Test Example 2: AMPK activator evaluation, mobility-shift kinase assay after CaMKK2 phosphorylation. The experiment is classed as biochemical. The conditions noted are these: for EC150: compound concentration showing 150% relative to the control (100%); for Emax: maximum rate of increase in activity within the measurement range, control = 100%. As for the experimental part:
The full length cDNAs of human AMPK β2 (NM_005399.3) and human AMPK α2 (NM_006252.3) were inserted into the MCS1 and MCS2 of the pETDuet-1 vector to prepare a human AMPK β2 and human AMPK α2 (6× His tag at the 5′ terminus) expressing plasmid. The plasmid was cotransfected with an expression plasmid, in which the full length cDNA of human AMPK γ1 (NM_002733.3) had been inserted into pET28b(+), into BL21 CodonPlus (DE3)-RIL to obtain an expression strain. The expression strain was cultured in TB medium, followed by induction with 0.5 mM IPTG, and cultured at 25° C. for 3 hours and then harvested. After ultrasonication, supernatant was collected and applied to Histrap FF column (GE) and RESOUECE Q column (GE) to prepare 12.5 mg of purified sample containing three types of subunit from 1.8 L of broth.
An expression vector, in which the full length cDNA of human CAMKK β (NM_172226.1) had been inserted into pGEX-6P-3, was transfected into BL21 Star (DE3). The expression strain was cultured in TB medium, followed by induction with 0.5 mM IPTG, and cultured at 25° C. for 3 hours and then harvested. After ultrasonication, supernatant was collected and applied to GSTrap FF column (GE) to prepare 14 mg of GST-fused CAMKK β from 720 ml of broth.
Thus, phosphorylation treatment was carried out as pretreatment.
Human AMPK α2β2γ1 in an amount to give a conversion rate of approximately 10% by reaction for 2 hours, and CaMKK2 in an amount capable of sufficiently imparting activity to AMPK for one hour were mixed in a buffer solution consisting of a 50 mM HEPES-NaOH buffer solution (pH 7.0), 100 mM NaCl, 5 mM magnesium chloride, 0.1% bovine serum albumin, 0.2 mM sodium orthovanadate(V), 1 mM ethylene glycol-bis(2-aminoethyl ether)-N,N,N′,N′-tetraacetic acid (EGTA), 5 mM disodium β-glycerophosphate, 1 mM dithiothreitol and 0.2 mM ATP, and the obtained liquid was left to stand at 25° C. for 1 to 1.5 hours to sufficiently phosphorylate AMPK.
After that, to the enzyme liquid, which had been subjected to phosphorylation treatment, a compound dissolved in DMSO was added so as to have a 1% DMSO concentration. The obtained liquid was left to stand for 10 minutes.
To the liquid, a substrate solution consisting of a 50 mM HEPES-NaOH buffer solution (pH 7.0), 100 mM NaCl, 10 mM magnesium chloride, 0.1% bovine serum albumin, 0.2 mM sodium orthovanadate(V), 1 mM ethylene glycol-bis(2-aminoethyl ether)-N,N,N′,N′-tetraacetic acid (EGTA), 5 mM disodium β-glycerophosphate, 2 mM dithiothreitol, 0.4 mM ATP and 3 μM FL-Peptide 7 (manufactured by Caliper Life Sciences, Inc.) was added in equal amount (10 μl in total). The obtained liquid was allowed to react at 25° C. for 2 hours, and 10 μl of 20 mM EDTA was then added thereto to stop the reaction.
To detect phosphorylated fluorescent substrates, the reaction liquid was applied to a measuring device, LabChip EZ Reader II manufactured by Caliper Life Science, Inc., for detecting fluorescence by using differences in mobility due to differences in charge. The setting conditions for the device were pressure, −1.5 PSI; upstream voltage, −2250 V; downstream voltage, −400 V; post sample buffer sip time, 40 seconds; final delay, 120 seconds; and peak order, Product First.
A conversion rate was calculated from the peak heights of the resulting substrate and product. The conversion rate when not containing a compound was used as a control, and a concentration dependent curve was made by plotting the rate of increase in activity to the control at each concentration of a compound.

Each structure is given as a SMILES string.

T1 sequence (P54646 whole entry): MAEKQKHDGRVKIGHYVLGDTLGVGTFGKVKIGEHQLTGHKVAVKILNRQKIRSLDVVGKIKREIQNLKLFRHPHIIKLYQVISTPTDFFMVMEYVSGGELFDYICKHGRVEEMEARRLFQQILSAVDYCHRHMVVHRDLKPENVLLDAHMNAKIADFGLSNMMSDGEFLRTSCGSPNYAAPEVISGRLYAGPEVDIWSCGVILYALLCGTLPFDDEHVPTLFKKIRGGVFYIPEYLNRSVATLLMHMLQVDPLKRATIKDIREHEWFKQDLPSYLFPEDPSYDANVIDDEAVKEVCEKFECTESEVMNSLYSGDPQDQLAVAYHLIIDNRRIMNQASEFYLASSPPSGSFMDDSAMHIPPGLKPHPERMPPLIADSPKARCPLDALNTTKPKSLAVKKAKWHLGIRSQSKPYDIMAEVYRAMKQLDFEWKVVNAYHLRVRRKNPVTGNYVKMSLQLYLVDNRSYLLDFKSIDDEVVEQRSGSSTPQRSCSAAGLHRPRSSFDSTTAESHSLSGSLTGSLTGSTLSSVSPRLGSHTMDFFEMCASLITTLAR
T1 sequence (O43741 whole entry): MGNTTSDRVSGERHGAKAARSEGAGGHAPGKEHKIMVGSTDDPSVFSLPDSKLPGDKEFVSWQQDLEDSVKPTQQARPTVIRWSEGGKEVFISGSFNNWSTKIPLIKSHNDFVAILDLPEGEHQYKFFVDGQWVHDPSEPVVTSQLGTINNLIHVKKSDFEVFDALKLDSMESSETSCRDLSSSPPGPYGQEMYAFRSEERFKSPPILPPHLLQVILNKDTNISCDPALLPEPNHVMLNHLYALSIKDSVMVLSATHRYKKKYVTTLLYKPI
T1 sequence (P54619 whole entry): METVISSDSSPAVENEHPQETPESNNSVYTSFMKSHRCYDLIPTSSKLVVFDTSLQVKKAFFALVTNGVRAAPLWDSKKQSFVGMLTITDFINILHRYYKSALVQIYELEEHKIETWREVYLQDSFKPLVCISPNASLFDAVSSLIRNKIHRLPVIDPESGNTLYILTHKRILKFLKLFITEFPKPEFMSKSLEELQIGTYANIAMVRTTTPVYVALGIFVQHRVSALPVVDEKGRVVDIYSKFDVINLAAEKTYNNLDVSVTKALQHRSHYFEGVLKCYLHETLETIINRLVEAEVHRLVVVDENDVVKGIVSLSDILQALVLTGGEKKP

Consider `O[C@@H]1CO[C@H]2[C@@H]1OC[C@H]2Oc1nc2nc(NCc3c(F)cccc3F)c(Cl)cc2[nH]1` [Compound I-1-1], for which the EC150 was found to be 29 nM and the Emax (in general, the maximal effect, on the per cent scale that the assay sets) came out at 484%.
For `COCCOc1cc(F)c(CSc2nc3nc(O[C@@H]4CO[C@H]5[C@@H]4OC[C@H]5O)[nH]c3cc2Cl)c(F)c1` [Compound I-1-4], the EC150 was 40 nM and the maximal response (Emax) stood at 766%.
In the same order, the values of `Cc1cccc(F)c1CNc1nc2nc(O[C@@H]3CO[C@H]4[C@@H]3OC[C@H]4O)[nH]c2cc1Cl` [Compound I-1-6] are 21 nM and 496%.
In the same order, the values of `O[C@@H]1CO[C@H]2[C@@H]1OC[C@H]2Oc1nc2nc(NC3CCc4ccccc43)c(Cl)cc2[nH]1` (stereo partly shown) [Compound I-1-8] are 67 nM and 617%.
For `O[C@@H]1CO[C@H]2[C@@H]1OC[C@H]2Oc1nc2nc(NCc3c(F)cccc3F)c(F)cc2[nH]1` [Compound I-1-10], in that order: 740 nM and 406%.
On to `O[C@@H]1CO[C@H]2[C@@H]1OC[C@H]2Oc1nc2nc(NC3COc4ccccc43)c(Cl)cc2[nH]1` (stereo partly shown) [Compound I-1-11], for which the EC150 was 170 nM and the Emax was found to be 512%.
Take `COCCOc1cc(F)c(CNc2nc3nc(O[C@@H]4CO[C@H]5[C@@H]4OC[C@H]5O)[nH]c3cc2Cl)c(F)c1` [Compound I-1-13]: the EC150 is on record as 17 nM and the Emax amounted to 838%.
For `O[C@@H]1CO[C@H]2[C@@H]1OC[C@H]2Oc1nc2nc(NCc3c(F)cc(Cl)cc3F)c(Cl)cc2[nH]1` [Compound I-1-14], in that order: 42 nM and 750%.
For `OCCOc1cc(F)c(CNc2nc3nc(O[C@@H]4CO[C@H]5[C@@H]4OC[C@H]5O)[nH]c3cc2Cl)c(F)c1` [Compound I-1-15], in that order: 5.8 nM and 894%.
On to `OCCCOc1cc(F)c(CNc2nc3nc(O[C@@H]4CO[C@H]5[C@@H]4OC[C@H]5O)[nH]c3cc2Cl)c(F)c1` [Compound I-1-36], for which the EC150 was 16 nM and the Emax turned out to be 475%.
For the compound `COCCOc1cc(F)c2c(c1)CCC2Nc1nc2nc(O[C@@H]3CO[C@H]4[C@@H]3OC[C@H]4O)[nH]c2cc1Cl` (stereo partly shown) [Compound I-1-38], the EC150 is 1.2 nM and the Emax worked out at 568%.
In the same order, the values of `Cn1cc(-c2cc(F)c(CNc3nc4nc(O[C@@H]5CO[C@H]6[C@@H]5OC[C@H]6O)[nH]c4cc3Cl)c(F)c2)cn1` [Compound I-1-39] are 26 nM and 506%.
In the same order, the values of `O[C@@H]1CO[C@H]2[C@@H]1OC[C@H]2Oc1nc2nc(NCc3cccs3)c(Cl)cc2[nH]1` [Compound I-1-52] are 100 nM and 407%.
For `O=C(Nc1nc2nc(O[C@@H]3CO[C@H]4[C@@H]3OC[C@H]4O)[nH]c2cc1Cl)c1ccc2ccccc2c1` [Compound I-1-80], in that order: 880 nM and 397%.
As to `O[C@@H]1CO[C@H]2[C@@H]1OC[C@H]2Oc1nc2nc(NCc3ccccc3F)c(Cl)cc2[nH]1` [Compound I-1-109], the EC150 came out at 48 nM and the Emax is 499%.
Turning to `O[C@@H]1CO[C@H]2[C@@H]1OC[C@H]2Oc1nc2nc(NC3CCc4cccnc43)c(Cl)cc2[nH]1` (stereo partly shown) [Compound I-1-116], the EC150 is 94 nM and the Emax came out at 450%.
Turning to `OCCO[C@@H]1CO[C@H]2[C@@H]1OC[C@H]2Oc1nc2nc(NCc3c(F)cccc3F)c(Cl)cc2[nH]1` [Compound I-1-119], the EC150 was 84 nM and the maximum response (Emax) stood at 432%.
For `CC(=O)NC(C)(C)c1ccc(Oc2nc3nc(NCc4c(F)cccc4F)c(Cl)cc3[nH]2)cn1` [Compound I-1-126], in that order: 170 nM and 332%.
For `Oc1cccc(F)c1CNc1nc2nc(O[C@@H]3CO[C@H]4[C@@H]3OC[C@H]4O)[nH]c2cc1Cl` [Compound I-2-1], the EC150 is given as 30 nM and the Emax came out at 588%.
In the same order, the values of `OC[C@@H]1C[C@H](Oc2nc3nc(NCc4c(F)cccc4F)c(Cl)cc3[nH]2)CO1` [Compound I-2-19] are 74 nM and 506%.
In the same order, the values of `O[C@@H]1CO[C@H]2[C@@H]1OC[C@H]2Oc1nc2nc(NCc3c(F)cccc3F)c(C(F)(F)F)cc2[nH]1` [Compound I-2-22] are 130 nM and 480%.
Turning to `OCCn1ccc(CNc2nc3nc(O[C@@H]4CO[C@H]5[C@@H]4OC[C@H]5O)[nH]c3cc2Cl)n1` [Compound I-2-62], the EC150 was 94 nM and the maximal response (Emax) amounted to 388%.
As to `CCc1ccc(CNc2nc3nc(O[C@@H]4CO[C@H]5[C@@H]4OC[C@H]5O)[nH]c3cc2Cl)s1` [Compound I-2-75], the EC150 is 26 nM and the Emax is 542%.
In the same order, the values of `CS(=O)(=O)CCCOc1cc(F)c(CNc2nc3nc(O[C@@H]4CO[C@H]5[C@@H]4OC[C@H]5O)[nH]c3cc2Cl)c(F)c1` [Compound I-2-91] are 5.4 nM and 532%.
For `CS(=O)(=O)NCCOc1cc(F)c(CNc2nc3nc(O[C@@H]4CO[C@H]5[C@@H]4OC[C@H]5O)[nH]c3cc2Cl)c(F)c1` [Compound I-2-93], in that order: 9.9 nM and 602%.
Consider `O[C@@H]1CO[C@H]2[C@@H]1OC[C@H]2Oc1nc2nc(NCc3c(F)cc(OCC4CNCCO4)cc3F)c(Cl)cc2[nH]1` (stereo partly shown) [Compound I-2-119], for which the EC150 turned out to be 13 nM and the maximal effect (Emax) worked out at 581%.
On to `O=C(c1cc(F)c2c(c1)CCC2Nc1nc2nc(O[C@@H]3CO[C@H]4[C@@H]3OC[C@H]4O)[nH]c2cc1Cl)N1CCCCC1` (stereo partly shown) [Compound I-2-147], for which the EC150 was found to be 4.5 nM and the Emax is 532%.
In the same order, the values of `O=C(c1cc(F)c2c(c1)CCC2Nc1nc2nc(O[C@@H]3CO[C@H]4[C@@H]3OC[C@H]4O)[nH]c2cc1Cl)N1CC[C@H](F)C1` (stereo partly shown) [Compound I-2-153] are 5.2 nM and 546%.
Turning to `COCCOc1cc(F)c2c(c1)OCC2Nc1nc2nc(O[C@@H]3CO[C@H]4[C@@H]3OC[C@H]4O)[nH]c2cc1Cl` (stereo partly shown) [Compound I-2-185], the EC150 is 6 nM and the Emax was 569%.
Take `O=C1CCCN1CCOc1cc(F)c(CNc2nc3nc(O[C@@H]4CO[C@H]5[C@@H]4OC[C@H]5O)[nH]c3cc2Cl)c(F)c1` [Compound I-2-188]: the EC150 was found to be 15 nM and the maximal effect (Emax) amounted to 603%.
In the same order, the values of `CN1CCC(Oc2cc(F)c(CNc3nc4nc(O[C@@H]5CO[C@H]6[C@@H]5OC[C@H]6O)[nH]c4cc3Cl)c(F)c2)CC1` [Compound I-2-192] are 7.6 nM and 568%.
In the same order, the values of `O[C@@H]1CO[C@H]2[C@@H]1OC[C@H]2Oc1nc2nc(NCc3c(F)cc(C4=CCNCC4)cc3F)c(Cl)cc2[nH]1` [Compound I-2-209] are 22 nM and 558%.
